Test results from article PMC8774648, “Effects of Baicalein and Chrysin on the Structure and Functional Properties of β-Lactoglobulin” (Foods, 2022).
Several values for one entry are separate records, joined by “and”; a condition that tells them apart may be missing. Equal values may be shown once. Read-outs that look alike come from different tables or passages of the source. Marks after values point to notes of the source that are not given here.

Key:
[1] = molecular target: T1, β-lactoglobulin (BLG) (Bos taurus, UniProt P02754); assay: CD spectra, secondary structure contents of BLG
T1 construct: purchased Sigma–Aldrich Co. (St. Louis, MO, USA)
T1 sequence (P02754 17-178): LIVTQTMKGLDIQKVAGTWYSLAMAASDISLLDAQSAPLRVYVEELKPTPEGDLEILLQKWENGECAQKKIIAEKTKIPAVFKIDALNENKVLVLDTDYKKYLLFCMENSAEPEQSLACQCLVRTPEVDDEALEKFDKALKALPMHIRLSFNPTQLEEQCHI
Method: The CD spectra in the range of 200–250 nm were obtained from a CD spectrometer (MOS 450, Bio–Logic, Claix, France) equipped with 1.0 mm path length cuvette under the constant nitrogen flush. The solutions were prepared with molar ratios of Bai or Chr to BLG of 0:1, 1:1, and 2:1, respectively. The contents of secondary structure of BLG were determined based on our previously reported study.

[2] = molecular target: T1, β-lactoglobulin (BLG); assay: Three-dimensional fluorescence spectra of BLG with Bai/Chr; settings: c(BLG) = 20.0 µM, c(Bai/Chr) = 20.0 μM
Method: (§1) Intrinsic fluorescence spectroscopic test was measured on a F–7000 spectrophotometer (Hitachi, Japan) equipped with temperature controller according to the method described in the previous study. Briefly, 3 mL solution of BLG (20.0 µM) was titrated by continuously adding different amounts of Bai or Chr (0–20.0 µM). The fluorescence spectra were recorded at different temperatures (298 K, 304 K, and 310 K) with the excitation wavelength of 280 nm and the excitation and emission slit set at 2.5 nm. Moreover, synchronous fluorescence spectra were conducted by setting the wavelength intervals (λem–λex) at 15 nm and 60 nm, respectively. The 3D fluorescence spectra (molar ratios of BLG to Bai/Chr were 1:0 and 1:1) were recorded at excitation and emission wavelength range of 200−600 nm. All the fluorescence values were corrected to eliminate the internal filtering effect according to the previous method, and were used to evaluate the quenching mechanism of Bai/Chr binding to BLG by using the following equation [21]:(1) F0/F=1+Kqτ0[Q]=1+KSV[Q] where F and F0 are the fluorescence intensities of fluorophore with and without quencher; Ksv denotes the Stern–Volmer quenching constant; Kq is the quenching rate constant (Kq = Ksv/τ0), and τ0 is the average lifetime of the biomolecule in the absence of a quencher (τ0 = 10^−8 s); [Q] represents the experimental concentration of Bai/Chr.

[3] = molecular target: T1, β-lactoglobulin (BLG); assay: Foaming ability and foaming stability of BLG
Method: Foaming ability (FA) and foaming stability (FS) were measured as described by Wang et al. with some modifications. A certain amount of BLG solution (1.0 mg mL^−1) was added to a 100 mL cylinder, and Bai or Chr was added to form solutions with different ratios of BLG to Bai or Chr (40:1, 30:1, 20:1, 10:1). The initial height H0 of the foam was recorded. The foam was then sheared at 10,000 rpm in a high-speed dispersion machine for 1 min and the height of the foam was recorded as H1. The height of the foam was recorded as H2 30 min later. The FA (%) and FS (%) were calculated according to the following equations:(9) FA (%)=H1−H0/H0×100 (10) FS (%)=H2−H0/H1−H0×100

[4] = molecular target: T1, β-lactoglobulin (BLG); assay: Emulsifying ability and emulsifying stability of BLG
Method: Emulsifying ability (EA) and emulsifying stability (ES) were investigated by the method of Xiong et al. with slight modification. BLG solution (1 mg mL^−1) was added to Bai/Chr to form the solutions with different ratios of BLG to Bai/Chr (40:1, 30:1, 20:1, 10:1), and then soybean oil was added to form BLG solution containing 10% (v/v) oil. The emulsion was fully dispersed for 2 min at a rate of 7000 r min^−1 and repeated for three times. At 0 and 10 min, 30 µL of emulsion was extracted from the bottom of the sample and immediately added to 3 mL of 0.1% SDS solution. The absorbance of the sample was measured at 500 nm and recorded as A0 and A10, respectively. The EA (m^2 g^−1) and ES (min) were calculated according to the following equations:(11) EA (m^2 g^−1)=2×2.303/c×Φ×L×10^4×A0×D (12) ES (min)=A0/A0−A10×10 where c is the weight of the BLG per unit volume (g mL^−1), Φ is the volume fraction of the oil phase, L is the length of light path, and D is the dilution factor, D = 100.

[5] = molecular target: T1, β-lactoglobulin (BLG); assay: Protein surface hydrophobicity (PSH) of BLG with ANS probe
Method: PSH of BLG in the presence or absence of Bai or Chr was determined using ANS as a fluorescent probe. In the BLG solution (20.0 µM) alone or Bai/Chr–BLG mixture the ANS solution (5 mM) was continuously added until the fluorescence intensity of the mixture remained constant. The fluorescence intensity of the sample was recorded in the wavelength range of 400–600 nm upon 380 nm excitation. The PSH values were calculated by the following equations [26]:(5) [ANS]bound=F/B (6) [ANS]free=[ANS]total−[ANS]bound (7) F/[ANS]free=−F/Kdapp−Fmax/Kdapp (8) PSH=Fmax/[BLG]Kdapp where [ANS]free and [ANS]bound are the concentration of free and bound ANS, respectively. Kdapp is the apparent dissociation constant of ANS, Fmax is the maximum fluorescence intensity at saturating ANS concentration and B is the proportionality coefficient.

[6] = molecular target: T1, β-lactoglobulin (BLG); assay: Intrinsic fluorescence quenching of BLG by Bai/Chr (Stern–Volmer and double logarithmic equations); type: binding; settings: for Ksv (Stern–Volmer quenching constant) / Kd: pH 6.8; for Kd: read-out: Ka (binding constant) (converted)
Method: as §1
For static fluorescence quenching mechanism, the binding constant (Ka) and the number of binding sites (n) could be determined by the following equation [22]:(2) logF0−F/F=nlogKa−nlog1/[Qt]−(F0−F)[Pt]/F0 where [Qt] and [Pt] are the concentrations of Bai/Chr and BLG, respectively.

[7] = molecular target: T1, β-lactoglobulin (BLG); assay: Thermodynamic parameters of Bai/Chr–BLG binding (Van't Hoff equation)
Method: In order to determine the primary forces between BLG and Bai/Chr, thermodynamic parameters were calculated using the following equations [23]:(3) logKa=−ΔH°/2.303RT+ΔS°/2.303R (4) ΔG°=ΔH°−TΔS° where R and T represent gas constant (8.314 J mol^−1 K^−1) and temperature (298, 304, and 310 K), respectively. Enthalpy change (ΔH°) and entropy change (ΔS°) of interaction between ligands and biomolecules are the main criteria for evaluating acting force, and free energy (ΔG°) is the main criteria for estimating the spontaneity of interaction.

[8] = molecular target: T1, β-lactoglobulin (BLG); assay: Free sulfhydryl (SH) content of BLG (DTNB); settings: Bai/Chr 0 to 20.0 µM, BLG 20.0 µM
Method: The content of free SH was determined by spectrophotometry according to the report by Takić et al. with minor modifications. Briefly, Bai/Chr concentrations were varied from 0 to 20.0 µM, and BLG was kept at 20.0 µM. Then the two solutions were incubated with 10.0 mM DTNB in 50 mM PBS (pH 6.8) for 30 min at room temperature. The absorbance of the sample at 412 nm was recorded and the molar extinction coefficient (14,360 M^−1 cm^−1) was obtained from the standard curve of L-cysteine, which was used to calculate the number of total sulfhydryl groups per gram of protein.

[9] = molar ratio of Bai/Chr to BLG 1:1
[10] = molar ratio of Bai/Chr to BLG 2:1
[11] = molar ratio of Bai/Chr to BLG 2:1, listed as Bai–BLG

**Q.** Which “Random Coil content of BLG” value [1, 9] does the source give for `O=c1cc(-c2ccccc2)oc2cc(O)c(O)c(O)c12` [Bai, baicalein] here?
**A.** Its value is 26.47 ± 0.41 ^b %.

**Q.** What about the “α-Helix content of BLG” value [1, 9] of the same compound?
**A.** Its value is 14.12 ± 0.70 ^c %.

**Q.** And the “β-Sheet content of BLG” value [1, 9]?
**A.** Its value is 36.25 ± 0.25 ^b %.

**Q.** What about the “β-Turn content of BLG” value [1, 9] of the same compound?
**A.** The value was 23.16 ± 0.12 ^a %.

**Q.** And the “Random Coil content of BLG” value [1, 10]?
**A.** Its value is 25.26 ± 033 ^c %.

**Q.** And the “β-Turn content of BLG” value [1, 10]?
**A.** Its value is 24.77 ± 0.54 ^b %.

**Q.** And the “α-Helix content of BLG” value [1, 11]?
**A.** Its value is 15.85% and 15.85 ± 0.93 ^b %.

**Q.** What about the “β-Sheet content of BLG” value [1, 11] of the same compound?
**A.** Its value is 34.12% and 34.12 ± 0.34 ^d %.

**Q.** What about the “fluorescence intensity of Peak 2 (3D fluorescence)” value ([2]; free BLG 430.6) of the same compound?
**A.** The value was 206.8.

**Q.** What about the “fluorescence intensity of Peak 1 (3D fluorescence)” value ([2]; free BLG 522.1) of the same compound?
**A.** The value was 395.4.

**Q.** And the “increase of foaming stability (FS) of BLG” value ([3]; compared with BLG alone, molar ratio of BLG to Bai/Chr 10:1)?
**A.** The value was 80.64%.

**Q.** And the “increase of foaming ability (FA) of BLG” value ([3]; compared with FA of free BLG (25.2%), molar ratios of BLG to Bai/Chr changed from 40:1 to 10:1)?
**A.** Its value is 18.08%.

**Q.** What about the “effect on emulsifying stability (ES) of BLG” value ([4]; BLG to Bai/Chr 40:1 to 10:1) of the same compound?
**A.** The value was “promoted the enhancement of ES”.

**Q.** What about the “effect on emulsifying ability (EA) of BLG” value ([4]; with the increase of Bai or Chr concentration (BLG to Bai/Chr 40:1 to 10:1)) of the same compound?
**A.** Its value is “slightly improved”.

**Q.** What about the “F max (maximum fluorescence intensity at saturating ANS)” value ([5]; molar ratio 1:1) of the same compound?
**A.** The value was 154.31 ± 3.09 ^ab.

**Q.** What about the “PSH (protein surface hydrophobicity)” value ([5]; molar ratio 1:1) of the same compound?
**A.** Its value is 260.66 ± 5.21 ^b.

**Q.** What about the “Reduction Rate of PSH” value ([5]; molar ratio 1:1, versus BLG alone) of the same compound?
**A.** Its value is 20.87 ± 0.42 ^d %.

**Q.** What about the “F max (maximum fluorescence intensity at saturating ANS)” value ([5]; molar ratio 2:1) of the same compound?
**A.** The value was 120.27 ± 2.41 ^c.

**Q.** What about the “PSH (protein surface hydrophobicity)” value ([5]; molar ratio 2:1) of the same compound?
**A.** Its value is 200.45 ± 4.01 ^d.

**Q.** What about the “Reduction Rate of PSH” value ([5]; molar ratio 2:1, versus BLG alone) of the same compound?
**A.** Its value is 39.15 ± 0.78 ^c %.

**Q.** What about the “n (number of binding sites)” value ([6]; T = 298 K) of the same compound?
**A.** Its value is 1.03 ± 0.03.

**Q.** And the “Ksv (Stern–Volmer quenching constant)” value ([6]; T = 298 K)?
**A.** Its value is 5.75 ± 0.01 ^a ×10^4 L mol^−1.

**Q.** What about the Kd ([6]; T = 298 K) of the same compound?
**A.** Its Kd is 3.6 µM.

**Q.** What about the “n (number of binding sites)” value ([6]; T = 304 K) of the same compound?
**A.** Its value is 1.23 ± 0.02.

**Q.** What about the “Ksv (Stern–Volmer quenching constant)” value ([6]; T = 304 K) of the same compound?
**A.** Its value is 4.76 ± 0.03 ^b ×10^4 L mol^−1.

**Q.** What about the Kd ([6]; T = 304 K) of the same compound?
**A.** Its Kd is 3.75 µM.

**Q.** And the “n (number of binding sites)” value ([6]; T = 310 K)?
**A.** Its value is 1.31 ± 0.03.

**Q.** And the “Ksv (Stern–Volmer quenching constant)” value ([6]; T = 310 K)?
**A.** The value was 4.47 ± 0.06 ^c ×10^4 L mol^−1.

**Q.** What about the Kd ([6]; T = 310 K) of the same compound?
**A.** Its Kd is 3.92 µM.

**Q.** And the BLG fluorescence quenching ([6]; after 10 times titration, 298 K, c(BLG) = 20 µM)?
**A.** The BLG fluorescence quenching was 63.2%.

**Q.** And the “n (number of binding sites)” value ([6]; general statement for the three temperatures)?
**A.** The value was “approximately 1”.

**Q.** What about the “ΔG° (free energy)” value ([7]; T = 298 K) of the same compound?
**A.** The value was -7.421 kcal/mol.

**Q.** What about the “ΔG° (free energy)” value ([7]; T = 304 K) of the same compound?
**A.** Its value is -7.543 kcal/mol.

**Q.** And the “ΔG° (free energy)” value ([7]; T = 310 K)?
**A.** The value was -7.665 kcal/mol.

**Q.** And the “ΔH° (enthalpy change)” value ([7]; from Ka at 298, 304 and 310 K)?
**A.** Its value is -1.34 kcal/mol.

**Q.** And the “ΔS° (entropy change)” value ([7]; from Ka at 298, 304 and 310 K)?
**A.** The value was 85.44 J mol^−1 K^−1.

**Q.** And the “effect on contents of free SH group of BLG” value [8]?
**A.** The value was “gradually weakened”.
